# Measurements published in US11077141B2, “Anti-tumor T cell immunity induced by high dose radiation” (The Board of Trustees of the Leland Stanford Junior …, priority 2012, dated 2021).
# How the values were obtained:
# [1] = system: CT26 luc+ tumor cells; assay: Bioluminescence imaging of luciferase transduced CT26 tumors in RAG2-/- mice given LTI and CY with or without T cells; design: species or system BALB/c RAG2-/- mice; details: mouse, in vivo
# Excerpt: Cell lines. The CT26 cell line (an N-nitro-N-methylurethane-induced BALB/c murine colon carcinoma) was purchased from ATCC (Manassas, Va.). The 4T1 cell line (spontaneously arising) was also obtained from ATCC. The 4T1-LUC/GFP and CT26-LUC/GFP cell lines were lentiviraly transduced. The lentiviral vector pHR-IG was made by Dr. Yoshitaka Akagi. The GFP-firefly luciferase fusion (GLF) gene was subcloned from pJW.GFP-yLuc (kindly provided by Dr. M. H. Bachmann) into pHR2 to generate pHR2-GLF. Lentiviral particles expressing GLF were prepared as described before. […]. WT 4T1 and CT26 cells were seeded in a 6 well plate at 0.25×10^6 cells/well and incubated overnight in a 37° C. incubator. Titrated virus was then used to transduce the cell lines in the presence of protamine sulfate (10 μg/ml) to enhance transduction efficiency. Stable lentiviral transductants were then sorted 4 times for GFP fluorescence (100% purity) using a FACS DIVA cell sorter. Sorted cells were expanded and screened for bioluminescence using an Xenogen IVIS spectrum (Caliper Life Sciences; Hopkinton, Mass.), as well as GFP. Cell lines were maintained in RPMI-1640 complete medium supplemented with 10% fetal calf serum, L-glutamine, 2 mercaptoethanol, streptomycin and penicillin.
# In vivo BLI imaging. In vivo BLI was performed according to the method of Edinger et al. Briefly, mice were injected intraperitoneally with luciferin ([…]). Ten minutes later, mice were imaged using an IVIS100 charge-coupled device imaging system (Xenogen) for 5 minutes. Imaging data were analyzed and quantified with Living Image software (Xenogen).
# [2] = system: CT26 tumors; assay: Survival of CT26 tumor-bearing RAG-2-/- mice given 30 Gy LTI with or without CY and T cells; type: in vivo, BALB/c RAG2-/- mice; details: 30 Gy LTI at day 21
# Procedure: Animals. Wild-type male BALB/c (H-2^d) mice, and male BALB/c RAG2^−/− mice, were purchased from Jackson Laboratories (Bar Harbor, Me.). Mice were 5-8 weeks old.
# Irradiation. Total body irradiation was performed with a Philips X-ray unit (200 kV, 10 mA; Philips Electronic Instruments Inc., Rahway, N.J.) at a rate of 84 cGy/min with a 0.5 mm Cu filter. For local tumor irradiation, unanesthetized mice were placed in lead jigs through which established tumors in the hind quarter were protruded for irradiation to an area of approximately 2 cm diameter. Irradiation was performed with a Phillips X-ray unit operated at 200 kV with the dose rate of 1.21 Gy/min (20 mÅ with added filtration of 0.5 mm copper, the distance from X-ray source to the target of 31 cm, and a half value layer of 1.3 mm copper).
# Cell preparation, splenectomy, and collection of T cells for autologous transplantation. Single cell suspensions of bone marrow and spleen were prepared according to previously described procedures. […]
# FACS Aria (Becton Dickinson, Mountain View, Calif.) was used for analysis with FlowJo software (TreeStar, Ashland, Oreg.). After sorting cells were checked by FACS reanalysis and determined to be >99% pure. […]
# [3] = system: 4T1 luc+ breast tumor; assay: 4T1 breast tumor metastasis model: LTI (3 daily doses of 20 Gy), CY and cryopreserved autologous T cells; type: in vivo, BALB/c mice; details: 21 day 4T1 tumors; 3 daily doses of 20 Gy LTI, then single dose of CY
# Procedure: Irradiation. […] For local tumor irradiation, unanesthetized mice were placed in lead jigs through which established tumors in the hind quarter were protruded for irradiation to an area of approximately 2 cm diameter. Irradiation was performed with a Phillips X-ray unit operated at 200 kV with the dose rate of 1.21 Gy/min (20 mÅ with added filtration of 0.5 mm copper, the distance from X-ray source to the target of 31 cm, and a half value layer of 1.3 mm copper).
# Enriched cells were stained with anti-TCR-allophycocyanin (APC) and anti-CD4 or anti-CD8-fluorescein isothiocyanate (FITC) mAbs to check for purity, and preparations were uniformly at least 95% pure.
# FACS Aria (Becton Dickinson, Mountain View, Calif.) was used for analysis with FlowJo software (TreeStar, Ashland, Oreg.). After sorting cells were checked by FACS reanalysis and determined to be >99% pure. Collected T cells were cryopreserved with 10% DMSO and frozen in liquid nitrogen.
# In vivo BLI imaging. In vivo BLI was performed according to the method of Edinger et al. Briefly, mice were injected intraperitoneally with luciferin (10 μg/g body weight). Ten minutes later, mice were imaged using an IVIS100 charge-coupled device imaging system (Xenogen) for 5 minutes. Imaging data were analyzed and quantified with Living Image software (Xenogen).
smiles,measurement,setting,value
"O=P1(N(CCCl)CCCl)NCCCO1 (stereo not shown) [CY, cyclophosphamide]",day by which all of the mice died,[1],≤ 107
same,death or survival of mice by day 35,[1],2 of 5
same,tumor signal / tumor growth by BLI,[1],continued tumor growth
same,survival (none of the mice survived beyond),[2],≤ 80 days
same,mice died by day 84,[3],6 of 8
same,mice relapsed at day 98,[3],1
same,tumor growth,[3],progression of tumor growth was slowed
